Experimental data published in US20260374767A1, “FUSED HETEROCYCLIC COMPOUNDS AND USES THEREOF” (Chengdu Zenitar Biomedical Technology Co., Ltd., priority 2022, published 2026).

Legend:
breast cancer MDA-MB-436 [1] = experiment: In-vivo pharmacodynamic study on subcutaneous xenograft tumor model of breast cancer MDA-MB-436; set-up: species or system human tumor cells in NOD/SCID mice; conditions: for inhibitory effects on tumor growth compared to blank control group: all dose groups
Method: Strain: NOD/SCID; Grade: SPF; Source: Beijing Vitron River Bio-technology Co., Ltd.
The cells were washed 3 times with pre-cooled PBS, centrifuged at 300 g for 10 min, collected, re-suspended in PBS, and counted with a blood cell counting chamber, and the cell concentration was adjusted. After cell collection, the cell suspension was pre-cooled on ice. 100 μL of the cell suspension was administered via subcutaneous injection into the dorsal flank of the mice, and the grouped treatment was started when the tumor volume reached 200-300 mm^3.
Animal assay: all viable experimental animals scheduled for assay; Assay time: All animals were weighed before the modeling for test grouping. After modeling, the mice were weighed once every 2 days, and the weight change of the mice was recorded in real time. Effective criteria: tumor volume (TV), relative tumor volume (RTV) and relative tumor growth rate of subcutaneously implanted tumor model. […] The calculation formula of tumor volume (TV) was: TV (mm^3)=a×b2×0.5, where a and b were the long diameter and short diameter, respectively.
The evaluation index for anti-tumor activity was the relative tumor growth rate T/C (%), and the calculation formula was as follows: […]
Where, TRTV is relative tumor volume of the treatment group; CRTV is relative tumor volume of the negative control group. […] The tumor inhibition rate (%) was calculated by the formula below: […]
All raw data within the facility were collected manually according to the experimental scheme and the relevant guidelines of the research institution, or gathered by using a data acquisition system. Manually collected data can be transcribed into software such as Excel for analysis and reporting. The data from each group were quantitative, and the experimental data for each group of animals in the tables were expressed as mean±standard deviation (Mean±SD). In the figures, the experimental data ware described as mean±standard error of the mean (Mean±SEM). Statistical analysis, including t-tests and survival analysis, was performed by using the software such as EXCEL and GraphPad Prism.
After 24 days of administration, the tumor-bearing mice were anesthetized and euthanized. The tumor tissues were dissected, weighed, and photographed, and the tumor inhibition rate was calculated.

[2] = Body weight in MDA-MB-436 xenograft study; type: in vivo, NOD/SCID mice; conditions: for Body weight X ± SD, End: 24 days
Method: Animal assay: all viable experimental animals scheduled for assay; Assay time: All animals were weighed before the modeling for test grouping. After modeling, the mice were weighed once every 2 days, and the weight change of the mice was recorded in real time. Effective criteria: tumor volume (TV), relative tumor volume (RTV) and relative tumor growth rate of subcutaneously implanted tumor model. The long diameter and short diameter of the tumor was measured with vernier calipers every 2 days, and the anti-tumor effects of the tested drug was dynamically observed. The calculation formula of tumor volume (TV) was: TV (mm^3)=a×b2×0.5, where a and b were the long diameter and short diameter, respectively.
Each group consisted of 6 mice, all of which are administered orally once daily. […] After 24 days of administration, the tumor-bearing mice were anesthetized and euthanized. The tumor tissues were dissected, weighed, and photographed, and the tumor inhibition rate was calculated.

MDA-MB-436 cells = experiment: Anti-proliferative activity assay, BRCA-mutated MDA-MB-436 cells (CCK8); type: cell-based; conditions: Homo sapiens, MDA-MB-436, BRCA-mutated, 72 h + 96 h
Description: (§1) 2. Anti-Proliferative Activity Assay of Cell:

DLD-1 cells = experiment: Anti-proliferative activity assay, BRCA wild-type DLD-1 cells (CCK8); type: cell-based; conditions: Homo sapiens, 72 h + 96 h
Description: as §1

[3] = Pharmacokinetic evaluation in Balb/c mice; type: in vivo; conditions: mouse, plasma, 1 mg/kg, PO
breast cancer MDA-MB-436 [4] = experiment: Challenge experiment on subcutaneous xenograft tumor model of breast cancer MDA-MB-436 (large-volume tumors); conditions: 1 mg/kg orally once per day
PARP1 = PARP1 (Homo sapiens, UniProt P09874); experiment: Determination of PARP1 Enzyme; type: biochemical; conditions: read-out: PARP-1 inhibition ratio
PARP1, sequence (P09874 whole entry): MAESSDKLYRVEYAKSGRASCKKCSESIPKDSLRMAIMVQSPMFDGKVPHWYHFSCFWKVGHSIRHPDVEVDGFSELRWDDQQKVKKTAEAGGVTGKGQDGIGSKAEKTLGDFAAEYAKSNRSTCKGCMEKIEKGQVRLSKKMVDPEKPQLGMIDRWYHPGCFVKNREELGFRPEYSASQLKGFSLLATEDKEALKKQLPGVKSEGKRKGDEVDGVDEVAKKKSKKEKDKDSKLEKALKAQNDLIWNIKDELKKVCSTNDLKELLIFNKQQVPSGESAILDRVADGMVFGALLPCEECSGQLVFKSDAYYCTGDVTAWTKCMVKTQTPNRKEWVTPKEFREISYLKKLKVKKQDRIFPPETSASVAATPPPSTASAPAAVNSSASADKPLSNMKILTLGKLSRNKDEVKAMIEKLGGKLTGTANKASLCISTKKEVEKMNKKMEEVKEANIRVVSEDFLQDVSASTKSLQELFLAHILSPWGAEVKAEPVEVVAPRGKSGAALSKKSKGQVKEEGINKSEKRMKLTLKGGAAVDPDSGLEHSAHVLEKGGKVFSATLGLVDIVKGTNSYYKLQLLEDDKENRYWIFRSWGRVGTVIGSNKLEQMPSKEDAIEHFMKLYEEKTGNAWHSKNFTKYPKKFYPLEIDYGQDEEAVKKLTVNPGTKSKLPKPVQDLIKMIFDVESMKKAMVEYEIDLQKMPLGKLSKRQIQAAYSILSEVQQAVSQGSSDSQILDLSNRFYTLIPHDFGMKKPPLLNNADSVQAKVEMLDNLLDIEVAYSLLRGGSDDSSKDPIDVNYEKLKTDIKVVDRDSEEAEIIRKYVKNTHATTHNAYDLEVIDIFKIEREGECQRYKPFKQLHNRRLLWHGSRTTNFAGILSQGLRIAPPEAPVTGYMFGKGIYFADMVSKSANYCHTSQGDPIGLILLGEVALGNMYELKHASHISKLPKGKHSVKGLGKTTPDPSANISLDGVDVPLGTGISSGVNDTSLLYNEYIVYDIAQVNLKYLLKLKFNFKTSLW
Method: 1.1 Determination of PARP1 Enzyme
1.1.1 Preparation of buffer solution: PBST: 1× PBS, 0.05% Tween-20; blocking solution: 1× PBS, 0.05% Tween-20, 5% BSA; reaction buffer: 50 mM Tris-HCl (pH 7.5), 0.005% Tween-20, 0.01% BSA.
1.1.2 Coating: A 50 ng/mL Histone coating solution was prepared by using 1× PBS, 25 μL of the coating solution was transferred to a 384-well reaction plate, and the reaction plate was coated overnight at 4 °C.
1.1.3 Washing: After the coating was completed, the coating solution was discarded, and the reaction plate was washed with the PBST solution by means of transferring 50 μL of the PBST to the 384-well reaction plate, letting it stand for 5 min, discarding the washing solution, refilling the reaction plate, and repeating the washing process 3 times. Finally, the reaction plate was tapped dry and the next step of blocking was proceeded with.
1.1.4 Blocking: 50 μL of the blocking solution was transferred to the 384-well reaction plate and set for 1 h.
Washing: After the blocking was completed, the blocking solution was discarded, the reaction plate was washed 3 times with the PBST solution according to the method in Step 2, and the reaction plate was tapped dry.
1.1.5 A 1,000× compound was prepared, 1 μL of the compound was transferred to a 96-well plate containing 199 μL of the reaction buffer, mixed well, and then 5 µL of the mixed compound was transferred to the 384-well reaction plate.
1.1.6 A 25/10× PARP1-DNA solution was prepared by using the reaction buffer, 10 μL of the PARP1-DNA solution was transferred to the 384-well reaction plate. For a negative control well, 10 μL of the DNA solution was transferred and the final concentration of PARP1 was 0.02 nM and that of DNA was 0.8 nM.
1.1.9 Washing: After the reaction was completed, the reaction liquid was discarded. The reaction plate was washed 3 times with the PBST solution according to the method in Step 2, and the reaction plate was tapped dry.
1.1.11 Washing: The anti-Poly/Mono-ADP Ribose Rabbit was discarded, the reaction plate was washed 3 times with the PBST solution according to the method in Step 2, and the reaction plate was tapped dry.
1.1.12 A 2,000× anti-rabbit IgG, HRP-linked Antibody was diluted with the blocking solution, 20 μL of the diluted anti-rabbit IgG, HRP-linked Antibody was added, and incubated at room temperature for 1 h.
1.1.13 Washing: The anti-rabbit IgG, HRP-linked Antibody was discarded, the reaction plate was washed 3 times with the PBST solution according to the method in Step 2, and the reaction plate was tapped dry.
1.1.14 Color developing: Femto-ECL Substrate A and Femto-ECL Substrate B were mixed in a 1:1 ratio, and 25 μL of the mixture was transferred to the 384-well reaction plate.
1.1.15 Reading: A relative light unit (RLU) was read with Envision.

[5] = 0.1 mg/kg orally once daily, 24 days

Structure (SMILES) | inhibitory effects on tumor growth compared to blank control group (breast cancer MDA-MB-436 [1]; 24 days) | IC50 (MDA-MB-436 cells) [nM] | IC50 (DLD-1 cells) [µM] | inhibition at 0.01 µM (PARP1) [%] | inhibition at 0.1 µM (PARP1) [%] | other results
CCc1cc2ncc(CN3CCN(c4ccc(C(=O)NC)nc4)CC3)cc2[nH]c1=O [AZD5305, reference compound] | significant inhibitory effects on tumor growth | – | – | – | – | Body weight X ± SD, End ([2]; 0.1 mg/kg orally once daily): 21.8 ± 1.0 g; Body weight X ± SD, Start ([2]; 0.1 mg/kg orally once daily): 21.9 ± 0.7 g
CCc1cc2ncc(CN3CC=C(c4ccc(C(=O)NC)nc4)CC3)cc2[nH]c1=O [Compound 1] | significant inhibitory effects on tumor growth | 0.9 | > 10 | – | – | CL/F [3]: 0.167 mL/min/kg; Tumor inhibition rate (breast cancer MDA-MB-436 [1]; [5]): 82.18%; Tumor weight X ± SD (breast cancer MDA-MB-436 [1]; [5]): 0.39 ± 0.28 g; Tumor volume X ± SD, End (breast cancer MDA-MB-436 [1]; 0.1 mg/kg orally once daily, end, 24 days): 304.9 ± 141.7 mm^3; Tumor volume X ± SD, Start (breast cancer MDA-MB-436 [1]; 0.1 mg/kg orally once daily, start): 271.4 ± 76.6 mm^3; Body weight X ± SD, End ([2]; 0.1 mg/kg orally once daily): 21.6 ± 1.1 g; Body weight X ± SD, Start ([2]; 0.1 mg/kg orally once daily): 21.6 ± 0.3 g; tumor regression in large-volume tumors (breast cancer MDA-MB-436 [4]): complete regression of tumors
[2H]C([2H])([2H])NC(=O)c1ccc(C2=CCN(Cc3cnc4cc(CC)c(=O)[nH]c4c3)CC2)cn1 [Compound 2] | – | 1.1 | > 10 | – | – | –
[2H]C(c1cnc2cc(CC)c(=O)[nH]c2c1)N1CC=C(c2ccc(C(=O)NC)nc2)CC1 (stereo not shown) [Compound 3] | – | 1 | > 10 | – | – | –
[2H]C([2H])([2H])NC(=O)c1ccc(C2=CCN(Cc3cnc4cc(C([2H])([2H])C([2H])([2H])[2H])c(=O)[nH]c4c3)CC2)cn1 [Compound 11, 1′-((7-(ethyl-d5)-6-oxo-5,6-dihydro-1,5-naphthyridin-3-yl)methyl)-N-(methyl-d3)-1′,2′,3′,6′-tet rahydro-[3,4′-bipyridine]-6-carboxamide] | – | 0.8 | > 10 | – | – | –
[2H]C([2H])([2H])C([2H])([2H])c1cc2ncc(CN3CC=C(c4ccc(C(=O)NC5CC5)nc4)CC3)cc2[nH]c1=O [Compound 12, N-cyclopropyl-1′-((7-(ethyl-d5)-6-oxo-5,6-dihydro-1,5-naphthyridin-3-yl)methyl)-1′,2′,3′,6′-tet rahydro-[3,4′-bipyridine]-6-carboxamide] | – | – | – | 99.8 | 99.9 | –
[2H]C([2H])([2H])C([2H])([2H])c1nc2ccc(CN3CC=C(c4ccc(C(=O)NC)nc4)CC3)c(F)c2[nH]c1=O [Compound 13, 1′-((2-(ethyl-d5)-5-fluoro-3-oxo-3,4-dihydroquinoxalin-6-yl)methyl)-N-methyl-1′,2′,3′,6′-tetra hydro-[3,4′-bipyridine]-6-carboxamide] | – | – | – | 96.1 | 98.5 | –
[2H]C([2H])([2H])C([2H])([2H])c1nc2ccc(CN3CC=C(c4ccc(C(=O)NC)nc4F)CC3)c(F)c2[nH]c1=O [Compound 14, 1′-((2-(ethyl-d5)-5-fluoro-3-oxo-3,4-dihydroquinoxalin-6-yl)methyl)-2-fluoro-N-methyl-1′,2′,3′,6′-tetrahydro-[3,4′-bipyridine]-6-carboxamide] | – | – | – | 98.9 | 99.1 | –
[2H]C([2H])([2H])Cc1cc2ncc(CN3CC=C(c4ccc(C(=O)NC)nc4)CC3)cc2[nH]c1=O [Compound 16, 1′-((7-(ethyl-2,2,2-d3)-6-oxo-5,6-dihydro-1,5-naphthyridin-3-yl)methyl)-N-methyl-1′,2′,3′,6′-t etrahydro-[3,4′-bipyridine]-6-carboxamide] | – | 0.7 | > 10 | – | – | –
O=C(c1cc(Cc2n[nH]c(=O)c3ccccc23)ccc1F)N1CCN(C(=O)C2CC2)CC1 [Olaparib, reference compound] | significant inhibitory effects on tumor growth | – | – | – | – | Body weight X ± SD, End ([2]; 100 mg/kg orally once daily): 21.7 ± 1.4 g; Body weight X ± SD, Start ([2]; 100 mg/kg orally once daily): 21.9 ± 1.1 g
